Experimental data as given in PMC8819291, “Adaptively evolved human oral actinomyces‐sourced defensins show therapeutic potential” (EMBO Molecular Medicine, 2021).
Where a SMILES comes first, the peptide text is derived from it. Bridges are numbered along the chain shown (N, C = ends).

Key:
[1] = tested on: SSAN (Streptococcus sanguinis); test: Analysis of lysis in liquid culture; assay type: cell-based; details: culture at OD600 of 0.2, 5–10 μM AMSIN, 24 h
HNP1&2 = HNP1&2 (Homo sapiens, UniProt P59665); test: Bio-affinity ESI-MS for non-covalent complexes; assay type: binding; details: 52.5 μM AMSIN and 73.5 μM HNP1&2 in 25 mM NH4OAc (pH5.2)
Method: (§1) All components for interactions were dissolved in 25 mM ammonium acetate (pH5.2). Electrospray spectra were recorded with Waters SynaptG2‐Si mass spectrometer (Waters, Manchester, UK) and measurements were performed with positive ESI in resolution mode. Ions were scanned in a mass range of 500–2,000 m/z with the following conditions: the capillary voltage at 1,500 V; the cone voltage at 40 V; the source block temperature at 30°C. Spectra were recorded and processed by the software Masslynx4.1 (Waters, Manchester, UK).

hLZc (lysozyme C) = biological target: T1, hLZc (lysozyme C) (Homo sapiens, UniProt P61626); test: Bio-affinity ESI-MS for non-covalent complexes; assay type: binding; details: 52.5 μM AMSIN and 50 μM hLZc in 25 mM NH4OAc (pH5.2)
T1 construct: lysozyme C) isolated from human saliva; from tissue; host or cells: human saliva
Method: as §1

[2] = tested on: SM (Streptococcus mutans); test: Killing kinetics assay; assay type: cell-based; details: peptide dose 4 × C L
Method: In brief, SM was grown overnight in broth medium and diluted in fresh medium to 1 × 10^8 CFU/ml. […] Viable cell counts were obtained after 24 h of incubation at 37°C. Bacterial growth in the medium without peptides was used as a control.

SP R6 = test: RNA sequencing of the stimulon; assay type: cell-based, Streptococcus pneumoniae; details: sub‐lethal concentration, 10 min
Method: Cells were harvested and washed with PBS buffer (pH 7.3) following further incubation for 10 min. Total RNA was isolated using the Bacteria Total RNA Isolation Kit (Sangon, China) according to the manufacturer’s instruction. RNA quality was assessed by NanoDrop and Agilent 2100 Bioanalyzer (Table EV6). After enrichment and fragment, mRNA was reverse transcribed into single‐strand DNA and then synthesized into double‐strand DNA. Following end‐filling, 5′‐phosphorylation, bubble adaptor ligation, and PCR amplification, a single‐strand circled DNA library was established for sequencing in BGISEQ‐500 sequencer (BGI, China) with a combinatorial probe‐anchor synthesis (cPAS) strategy.

HL‐60 = test: Cytotoxicity assay (CCK-8); assay type: cell-based, human; details: 72 h
Method: Cells were cultured at 37°C in 5% CO2: 95% air incubator in Minimum Essential Medium (MEM) supplemented with 10% (v/v) fetal bovine serum (FBS). Cells were seeded at a density of 7 × 10^3 cells per well in 96‐well plates and incubated for 24 h. Media were then replaced with 200 μl of media containing various concentrations of peptides. The cells were incubated for 72 h and cytotoxicity was assessed with CCK‐8 Kits (Dojindo Molecular Technologies, Tokyo, Japan). Absorbance was detected at 450 nm with the TECAN Infinite M200 microplate reader (Tecan, Durham, USA).

Kv1.4 = Kv1.4 (Homo sapiens, UniProt P22459); details: 100 μM AMSIN
Method: (§2) For the expression of Nav1.5, Kv1.4, Kv1.5, Kv2.1, Kv4.3, and hERG in Xenopus oocytes, the linearized plasmids were transcribed using the T7 or SP6 mMESSAGE‐mMACHINE transcription kit (Ambion). The harvesting of stage V–VI oocytes from an anesthetized female Xenopus laevis frog was previously described (Zhu et al, [2020]). Oocytes were injected with 50 nl of cRNA at a concentration of 1 ng/nl using a micro‐injector (Drummond Scientific, USA). The oocytes were incubated in a solution containing (in mM): NaCl, 96; KCl, 2; CaCl2, 1.8; MgCl2, 2 and HEPES, 5 (pH 7.4), supplemented with 50 mg/l gentamycin sulfate. Two‐electrode voltage‐clamp recordings were performed at room temperature (18–22°C) using a Geneclamp 500 amplifier (Axon Instruments, USA) controlled by a pClamp data acquisition system (Axon Instruments, USA). Whole‐cell currents from oocytes were recorded 1–4 days after injection. Bath solution composition was (in mM): NaCl, 96; KCl, 2; CaCl2, 1.8; MgCl2, 2 and HEPES, 5 (pH 7.4). Voltage and current electrodes were filled with 3 M KCl. Resistances of both electrodes were kept between 0.7 and 1.5 M Ω. Elicited currents were sampled at 1 kHz and filtered at 0.5 kHz (for potassium currents) or sampled at 20 kHz and filtered at 2 kHz (for sodium currents) using a four‐pole low‐pass Bessel filter. […] Current traces of hERG channels were elicited by applying a +40 mV prepulse for 2 s followed by a step to −120 mV for 2 s.

Kv1.5 = Kv1.5 (Homo sapiens, UniProt P22460); details: 100 μM AMSIN
Method: as §2

Kv2.1 = Kv2.1 (Homo sapiens, UniProt Q14721); details: 100 μM AMSIN
Method: as §2

Kv4.3 = Kv4.3 (Homo sapiens, UniProt Q9UK17); details: 100 μM AMSIN
Method: as §2

Nav1.5 = Nav1.5 (Homo sapiens, UniProt Q14524); details: 100 μM AMSIN
Method: as §2

hERG = hERG (Homo sapiens, UniProt Q12809); details: 100 μM AMSIN
Method: as §2

Chain of hERG (Q12809 whole entry): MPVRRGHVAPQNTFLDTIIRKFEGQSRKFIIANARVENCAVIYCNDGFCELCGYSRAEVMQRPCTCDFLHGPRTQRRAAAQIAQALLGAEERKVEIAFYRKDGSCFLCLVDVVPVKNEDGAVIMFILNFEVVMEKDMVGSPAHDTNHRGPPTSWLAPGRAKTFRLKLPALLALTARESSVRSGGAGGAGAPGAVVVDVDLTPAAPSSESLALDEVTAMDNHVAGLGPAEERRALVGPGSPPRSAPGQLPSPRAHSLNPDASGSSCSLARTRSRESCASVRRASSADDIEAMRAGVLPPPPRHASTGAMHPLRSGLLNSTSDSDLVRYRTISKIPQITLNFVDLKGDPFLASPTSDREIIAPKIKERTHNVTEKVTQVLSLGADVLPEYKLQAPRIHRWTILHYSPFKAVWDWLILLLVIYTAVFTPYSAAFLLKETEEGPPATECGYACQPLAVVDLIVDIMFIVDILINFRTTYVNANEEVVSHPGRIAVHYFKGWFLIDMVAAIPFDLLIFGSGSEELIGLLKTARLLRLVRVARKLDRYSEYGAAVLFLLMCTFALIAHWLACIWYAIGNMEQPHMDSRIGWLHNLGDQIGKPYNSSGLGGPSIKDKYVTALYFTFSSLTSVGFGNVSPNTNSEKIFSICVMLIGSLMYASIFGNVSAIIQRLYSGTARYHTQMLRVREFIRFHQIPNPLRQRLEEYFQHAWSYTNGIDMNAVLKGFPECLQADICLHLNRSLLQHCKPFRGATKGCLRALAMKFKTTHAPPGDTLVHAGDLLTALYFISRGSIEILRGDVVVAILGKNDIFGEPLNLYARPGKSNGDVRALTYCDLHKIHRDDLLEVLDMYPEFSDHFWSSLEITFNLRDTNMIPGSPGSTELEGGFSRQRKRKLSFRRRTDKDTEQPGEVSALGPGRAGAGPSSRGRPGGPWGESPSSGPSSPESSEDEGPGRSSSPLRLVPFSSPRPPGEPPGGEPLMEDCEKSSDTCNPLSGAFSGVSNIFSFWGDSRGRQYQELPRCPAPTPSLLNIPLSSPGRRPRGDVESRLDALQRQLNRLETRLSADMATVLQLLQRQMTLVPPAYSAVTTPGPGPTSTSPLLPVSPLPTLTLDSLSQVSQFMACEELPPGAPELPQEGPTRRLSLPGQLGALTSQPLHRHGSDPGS
Chain of Kv4.3 (Q9UK17 whole entry): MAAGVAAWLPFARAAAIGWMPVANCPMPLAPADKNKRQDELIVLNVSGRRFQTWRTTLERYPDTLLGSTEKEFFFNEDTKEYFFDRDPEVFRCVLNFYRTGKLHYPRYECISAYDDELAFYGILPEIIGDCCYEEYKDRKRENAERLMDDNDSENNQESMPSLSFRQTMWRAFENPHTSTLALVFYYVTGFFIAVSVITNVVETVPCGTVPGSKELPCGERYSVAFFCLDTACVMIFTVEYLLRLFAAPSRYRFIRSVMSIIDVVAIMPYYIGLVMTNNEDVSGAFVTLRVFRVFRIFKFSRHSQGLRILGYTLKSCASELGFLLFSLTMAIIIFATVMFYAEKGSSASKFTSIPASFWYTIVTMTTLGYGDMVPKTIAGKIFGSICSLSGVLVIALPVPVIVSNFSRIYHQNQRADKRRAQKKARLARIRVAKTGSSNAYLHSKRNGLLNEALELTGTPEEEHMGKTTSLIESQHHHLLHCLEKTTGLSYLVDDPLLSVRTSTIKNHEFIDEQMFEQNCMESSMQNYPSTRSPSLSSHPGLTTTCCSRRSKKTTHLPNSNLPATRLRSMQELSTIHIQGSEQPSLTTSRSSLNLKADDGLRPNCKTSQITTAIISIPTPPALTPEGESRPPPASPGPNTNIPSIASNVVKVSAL
Chain of Nav1.5 (Q14524 whole entry): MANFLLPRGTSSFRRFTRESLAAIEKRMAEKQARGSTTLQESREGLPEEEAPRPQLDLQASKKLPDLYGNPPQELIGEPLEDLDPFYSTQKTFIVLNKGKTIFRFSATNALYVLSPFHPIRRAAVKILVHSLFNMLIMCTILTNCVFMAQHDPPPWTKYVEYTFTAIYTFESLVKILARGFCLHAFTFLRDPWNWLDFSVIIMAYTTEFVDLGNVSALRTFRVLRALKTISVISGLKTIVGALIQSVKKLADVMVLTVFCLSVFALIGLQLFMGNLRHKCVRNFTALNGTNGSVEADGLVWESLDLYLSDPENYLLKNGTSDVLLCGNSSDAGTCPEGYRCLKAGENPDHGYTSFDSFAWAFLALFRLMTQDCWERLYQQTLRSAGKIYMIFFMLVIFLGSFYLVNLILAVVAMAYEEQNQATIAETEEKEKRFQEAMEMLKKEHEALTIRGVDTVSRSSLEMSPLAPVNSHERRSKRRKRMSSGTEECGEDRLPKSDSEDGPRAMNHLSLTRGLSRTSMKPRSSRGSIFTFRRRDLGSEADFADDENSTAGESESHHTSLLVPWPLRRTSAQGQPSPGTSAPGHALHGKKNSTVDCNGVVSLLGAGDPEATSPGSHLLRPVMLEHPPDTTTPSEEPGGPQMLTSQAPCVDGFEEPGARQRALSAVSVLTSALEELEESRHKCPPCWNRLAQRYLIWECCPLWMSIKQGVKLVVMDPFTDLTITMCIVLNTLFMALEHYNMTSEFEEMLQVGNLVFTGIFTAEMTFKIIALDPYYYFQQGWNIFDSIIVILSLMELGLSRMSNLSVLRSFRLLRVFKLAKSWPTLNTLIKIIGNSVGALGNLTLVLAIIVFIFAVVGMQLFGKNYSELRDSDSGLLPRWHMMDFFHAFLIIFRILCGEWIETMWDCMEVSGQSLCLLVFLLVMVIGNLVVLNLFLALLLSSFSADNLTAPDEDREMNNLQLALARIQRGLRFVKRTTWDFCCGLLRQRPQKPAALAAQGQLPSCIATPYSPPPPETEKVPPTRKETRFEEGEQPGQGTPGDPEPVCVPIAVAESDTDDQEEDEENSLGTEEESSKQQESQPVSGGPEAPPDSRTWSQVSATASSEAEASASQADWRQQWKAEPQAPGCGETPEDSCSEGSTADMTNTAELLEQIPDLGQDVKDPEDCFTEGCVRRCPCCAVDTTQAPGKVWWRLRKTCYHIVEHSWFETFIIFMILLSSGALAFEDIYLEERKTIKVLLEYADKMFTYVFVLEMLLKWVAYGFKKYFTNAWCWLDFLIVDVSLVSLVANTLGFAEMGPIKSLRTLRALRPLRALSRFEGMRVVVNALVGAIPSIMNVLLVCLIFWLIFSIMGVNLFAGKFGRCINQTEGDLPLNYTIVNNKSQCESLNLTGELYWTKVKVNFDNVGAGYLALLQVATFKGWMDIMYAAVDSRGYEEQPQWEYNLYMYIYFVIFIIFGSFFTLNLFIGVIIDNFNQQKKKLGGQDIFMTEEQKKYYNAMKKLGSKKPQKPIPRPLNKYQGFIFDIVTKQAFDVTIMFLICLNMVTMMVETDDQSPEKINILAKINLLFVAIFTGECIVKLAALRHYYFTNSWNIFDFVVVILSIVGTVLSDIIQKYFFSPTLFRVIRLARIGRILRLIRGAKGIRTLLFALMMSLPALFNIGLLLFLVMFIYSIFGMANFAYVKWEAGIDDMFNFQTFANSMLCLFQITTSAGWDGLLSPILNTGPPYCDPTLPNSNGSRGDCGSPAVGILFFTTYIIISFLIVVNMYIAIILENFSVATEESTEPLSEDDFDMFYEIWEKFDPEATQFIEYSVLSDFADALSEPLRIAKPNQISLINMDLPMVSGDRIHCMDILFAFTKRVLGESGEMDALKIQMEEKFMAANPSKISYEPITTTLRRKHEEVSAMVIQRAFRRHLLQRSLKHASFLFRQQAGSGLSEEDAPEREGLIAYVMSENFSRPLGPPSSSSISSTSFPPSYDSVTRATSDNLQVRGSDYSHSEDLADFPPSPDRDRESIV
Chain of Kv2.1 (Q14721 whole entry): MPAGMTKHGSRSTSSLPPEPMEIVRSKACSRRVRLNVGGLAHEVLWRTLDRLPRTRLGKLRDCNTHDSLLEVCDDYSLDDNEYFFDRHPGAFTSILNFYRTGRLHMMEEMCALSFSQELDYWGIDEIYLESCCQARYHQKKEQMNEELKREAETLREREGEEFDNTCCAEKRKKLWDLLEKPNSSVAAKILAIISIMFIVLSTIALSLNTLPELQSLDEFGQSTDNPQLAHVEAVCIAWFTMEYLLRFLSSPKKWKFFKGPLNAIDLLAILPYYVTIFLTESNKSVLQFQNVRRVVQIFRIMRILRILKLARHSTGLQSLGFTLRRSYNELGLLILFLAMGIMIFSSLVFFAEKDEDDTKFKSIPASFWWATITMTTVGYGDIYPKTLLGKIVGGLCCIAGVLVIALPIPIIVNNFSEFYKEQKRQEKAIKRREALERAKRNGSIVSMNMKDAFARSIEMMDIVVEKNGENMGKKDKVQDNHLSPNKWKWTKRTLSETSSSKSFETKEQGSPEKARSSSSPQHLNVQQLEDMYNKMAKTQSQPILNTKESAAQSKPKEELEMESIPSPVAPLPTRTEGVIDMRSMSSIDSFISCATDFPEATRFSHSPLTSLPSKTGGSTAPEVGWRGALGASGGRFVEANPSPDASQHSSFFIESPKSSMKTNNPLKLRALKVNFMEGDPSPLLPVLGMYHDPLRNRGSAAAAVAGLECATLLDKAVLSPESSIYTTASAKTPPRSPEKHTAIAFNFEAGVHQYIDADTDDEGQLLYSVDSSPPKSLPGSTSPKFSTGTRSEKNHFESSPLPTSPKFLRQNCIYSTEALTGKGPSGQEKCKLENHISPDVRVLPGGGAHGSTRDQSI
T1 sequence (P61626 19-148): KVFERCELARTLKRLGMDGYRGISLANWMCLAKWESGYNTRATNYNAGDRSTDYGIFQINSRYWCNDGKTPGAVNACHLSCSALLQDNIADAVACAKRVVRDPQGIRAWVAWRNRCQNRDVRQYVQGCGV
Chain of HNP1&2 (P59665 66-94 limits assumed): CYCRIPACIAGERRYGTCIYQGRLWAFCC

CC[C@H](C)[C@@H]1NC(=O)[C@H](CCCCN)NC(=O)CNC(=O)[C@H](CCCNC(=N)N)NC(=O)[C@@H]2CSSC[C@H](NC(=O)CNC(=O)[C@H](Cc3ccccc3)NC(=O)CN)C(=O)N3CCC[C@H]3C(=O)N[C@@H](Cc3c[nH]c4ccccc34)C(=O)N[C@@H](CC(N)=O)C(=O)N[C@@H](C)C(=O)N[C@@H](Cc3ccc(O)cc3)C(=O)N[C@@H](CCC(=O)O)C(=O)N[C@H]3CSSC[C@H](NC(=O)[C@H]([C@@H](C)O)NC(=O)[C@H](CCC(N)=O)NC(=O)[C@H](CCCNC(=N)N)NC1=O)C(=O)N[C@@H](Cc1c[nH]cn1)C(=O)N[C@H](C(=O)N[C@@H](Cc1ccc(O)cc1)C(=O)O)CSSC[C@H](NC(=O)[C@H](Cc1c[nH]cn1)NC(=O)[C@H](CCCNC(=N)N)NC(=O)[C@H](CC(=O)O)NC3=O)C(=O)N[C@@H](C(C)C)C(=O)N[C@@H](CO)C(=O)N[C@@H](CCCCN)C(=O)NCC(=O)N[C@@H](Cc1ccc(O)cc1)C(=O)N[C@@H]([C@@H](C)O)C(=O)NCC(=O)NCC(=O)N[C@@H](CC(N)=O)C(=O)N2 [AMSIN] (H-GFGCPWNAYECDRHCVSKGYTGGNCRGKIRQTCHCY-OH; disulfide 4-25, 11-33, 15-35; N-terminus and C-terminus assumed)
Lysis of bacteria [1]: lytic effect | Complex formation by ESI-MS (HNP1&2): no complex formation | Complex formation by ESI-MS (hLZc (lysozyme C)): no complex formation | Viable SM cells in killing kinetics ([2]; 0 min, start 1 × 10^8 CFU/ml): 8 Log10 (CFU/mL) | Viable SM cells in killing kinetics ([2]; 15 min): 9 Log10 (CFU/mL) | Viable SM cells in killing kinetics ([2]; 30 min): 8.9 Log10 (CFU/mL) | Viable SM cells in killing kinetics ([2]; 120 min): 8.7 Log10 (CFU/mL) | Viable SM cells in killing kinetics ([2]; 240 min): 8.5 Log10 (CFU/mL) | Transcriptional profile compared with vancomycin (SP R6): partly overlapped | Cellular variability of HL-60 (%) (HL‐60; 25 μg/mL, replicate 1): 97% | Cellular variability of HL-60 (%) (HL‐60; 25 μg/mL, replicate 2): 101% | Cellular variability of HL-60 (%) (HL‐60; 25 μg/mL, replicate 3): 108% | Cellular variability of HL-60 (%) (HL‐60; 50 μg/mL, replicate 1): 97% | Cellular variability of HL-60 (%) (HL‐60; 50 μg/mL, replicate 2): 100% | Cellular variability of HL-60 (%) (HL‐60; 50 μg/mL, replicate 3): 103% | Cellular variability of HL-60 (%) (HL‐60; 100 μg/mL, replicate 1): 97% | Cellular variability of HL-60 (%) (HL‐60; 100 μg/mL, replicate 2): 102% | Cellular variability of HL-60 (%) (HL‐60; 100 μg/mL, replicate 3): 106% | Effect on channel current (Kv1.4): no any effect | Effect on channel current (Kv1.5): no any effect | Effect on channel current (Kv2.1): no any effect | Effect on channel current (Kv4.3): no any effect | Effect on channel current (Nav1.5): no any effect | Effect on channel current (hERG): no any effect
